# Reference: patent US20120100990A1, “4 -AMINOPICOLINATES AND THEIR USE AS HERBICIDES” (SYNGENTA CROP PROTECTION LLC, priority 2009, published 2012)
# Legend:
# Type in all cases: in vivo
# [1] = system: Echinochloa crus-galli (ECHCG); assay: Pre-emergence biological efficacy, glasshouse pot test; conditions: 312 h, 1,000 g/ha, evaluated after 13 days, 100=total damage, 0=no damage, read-out: Percentage damage caused to weed species, pre-emergence, ECHCG
# Description: (§1) Seeds of Alopecurus myosuroides (ALOMY), Setaria faberi (SETFA), Echinochloa crus-galli (ECHCG), Solanum nigrum (SOLNI), Amaranthus retroflexus (AMARE) and Ipomea hederaceae (IPOHE) were sown in standard soil in pots. After cultivation for one day under controlled conditions in a glasshouse (at 24/16° C., day/night; 14 hours light; 65% humidity), the plants were sprayed with an aqueous spray solution derived from the formulation of the technical active ingredient in acetone/water (50:50) solution containing 0.5% Tween 20 (polyoxyethylene sorbitan monolaurate, CAS RN 9005-64-5) to give a final dose of 1000 or 250 g/ha of test compound. The test plants were then grown under controlled conditions in the glasshouse (at 24/16° C., day/night; 14 hours light; 65% humidity) and watered twice daily. After 13 days the test was evaluated (100=total damage to plant; 0=no damage to plant).
# Solanum nigrum (SOLNI) [2] = assay: as above; conditions: 312 h, 1,000 g/ha, evaluated after 13 days, 100=total damage, 0=no damage, read-out: Percentage damage caused to weed species, pre-emergence, SOLNI
# Description: as §1
# Setaria faberi (SETFA) [3] = assay: as above; conditions: 312 h, 1,000 g/ha, evaluated after 13 days, 100=total damage, 0=no damage, read-out: Percentage damage caused to weed species, pre-emergence, SETFA
# Description: as §1
# [4] = system: Amaranthus retroflexus (AMARE); assay: as above; conditions: 312 h, 1,000 g/ha, evaluated after 13 days, 100=total damage, 0=no damage, read-out: Percentage damage caused to weed species, pre-emergence, AMARE
# Description: as §1
# [5] = system: Alopecurus myosuroides (ALOMY); assay: as above; conditions: 312 h, 1,000 g/ha, evaluated after 13 days, 100=total damage, 0=no damage, read-out: Percentage damage caused to weed species, pre-emergence, ALOMY
# Description: as §1
# [6] = system: Ipomea hederaceae (IPOHE); assay: as above; conditions: Ipomoea hederacea, 312 h, 1,000 g/ha, evaluated after 13 days, 100=total damage, 0=no damage, read-out: Percentage damage caused to weed species, pre-emergence, IPOHE
# Description: as §1
# [7] = system: Echinochloa crus-galli (ECHCG); assay: Post-emergence biological efficacy, glasshouse pot test; conditions: 312 h, 1,000 g/ha, evaluated after 13 days, 100=total damage, 0=no damage, read-out: Percentage damage caused to weed species, post-emergence, ECHCG
# Description: as §1, with “for 8 days” for “for one day”, “grown on” for “grown”, “in a” for “in the”
# Solanum nigrum (SOLNI) [8] = assay: as above; conditions: 312 h, 1,000 g/ha, evaluated after 13 days, 100=total damage, 0=no damage, read-out: Percentage damage caused to weed species, post-emergence, SOLNI
# Description: as §1, with “for 8 days” for “for one day”, “grown on” for “grown”, “in a” for “in the”
# Setaria faberi (SETFA) [9] = assay: as above; conditions: 312 h, 1,000 g/ha, evaluated after 13 days, 100=total damage, 0=no damage, read-out: Percentage damage caused to weed species, post-emergence, SETFA
# Description: as §1, with “for 8 days” for “for one day”, “grown on” for “grown”, “in a” for “in the”
# [10] = system: Amaranthus retroflexus (AMARE); assay: as above; conditions: 312 h, 1,000 g/ha, evaluated after 13 days, 100=total damage, 0=no damage, read-out: Percentage damage caused to weed species, post-emergence, AMARE
# Description: as §1, with “for 8 days” for “for one day”, “grown on” for “grown”, “in a” for “in the”
# [11] = system: Alopecurus myosuroides (ALOMY); assay: as above; conditions: 312 h, 1,000 g/ha, evaluated after 13 days, 100=total damage, 0=no damage, read-out: Percentage damage caused to weed species, post-emergence, ALOMY
# Description: as §1, with “for 8 days” for “for one day”, “grown on” for “grown”, “in a” for “in the”
# [12] = system: Ipomea hederaceae (IPOHE); assay: as above; conditions: Ipomoea hederacea, 312 h, 1,000 g/ha, evaluated after 13 days, 100=total damage, 0=no damage, read-out: Percentage damage caused to weed species, post-emergence, IPOHE
# Description: as §1, with “for 8 days” for “for one day”, “grown on” for “grown”, “in a” for “in the”
Structure (SMILES),pest or weed control at 1000 g/ha [1] [%],pest or weed control at 1000 g/ha (Solanum nigrum (SOLNI) [2]) [%],pest or weed control at 1000 g/ha (Setaria faberi (SETFA) [3]) [%],pest or weed control at 1000 g/ha [4] [%],pest or weed control at 1000 g/ha [5] [%],pest or weed control at 1000 g/ha [6] [%],pest or weed control at 1000 g/ha [7] [%],pest or weed control at 1000 g/ha (Solanum nigrum (SOLNI) [8]) [%],pest or weed control at 1000 g/ha (Setaria faberi (SETFA) [9]) [%],pest or weed control at 1000 g/ha [10] [%],pest or weed control at 1000 g/ha [11] [%],pest or weed control at 1000 g/ha [12] [%]
"COC(=O)c1nc(Cl)cc(NCC2CC2)c1Cl [Compound 1-2, 4-Cyclopropylmethyl-amino-3,6-dichloro-pyridine-2-carboxylic acid methyl ester]",90,100,90,100,80,100,70,90,90,100,90,80
"C=Cc1c(NCC2CC2)cc(Cl)nc1C(=O)OC [Compound 1-12, 6-chloro-4-cyclopropylmethylamino-3-ethenyl-pyridine-2-carboxylic acid methyl ester]",90,100,90,100,80,90,80,90,90,100,70,70
"COC(=O)c1nc(Cl)cc(NCc2ccccc2)c1Cl [Compound 2-2, 3,6-Dichloro-4-phenylmethyl-amino-pyridine-2-carboxylic acid methyl ester]",30,100,80,100,60,90,60,100,80,100,50,70
"C=Cc1c(NCc2ccccc2)cc(Cl)nc1C(=O)OC [Compound 2-12, 6-Chloro-3-ethenyl-4-phenylmethyl-amino-pyridine-2-carboxylic acid methyl ester]",30,100,80,100,80,80,50,100,80,100,60,70
"C=Cc1c(NCc2ccccc2Cl)cc(Cl)nc1C(=O)OC [Compound 3-12, 6-Chloro-4-[(2-chlorophenyl-methyl)-amino]-3-ethenyl-pyridine-2-carboxylic acid methyl ester]",0,90,10,100,20,50,20,90,10,100,0,40
"COC(=O)c1nc(Cl)cc(NCc2ccc(Cl)cc2)c1Cl [Compound 5-2, 4-[(4-Chlorophenyl-methyl)-amino]-3,6-dichloro-pyridine-2-carboxylic acid methyl ester]",10,100,50,100,20,90,50,100,70,100,50,70
"COC(=O)c1nc(Cl)cc(NCc2ccccc2F)c1Cl [Compound 6-2, 3,6-Dichloro-4-[(2-fluorophenylmethyl)-amino]-pyridine-2-carboxylic acid methyl ester]",60,100,80,100,70,90,40,100,90,100,60,70
"C=Cc1c(NCc2ccccc2F)cc(Cl)nc1C(=O)OC [Compound 6-12, 6-Chloro-3-ethenyl-4-[(2-fluorophenyl-methyl)-amino]-pyridine-2-carboxylic acid methyl ester]",30,100,40,100,40,60,20,90,80,100,20,70
"COC(=O)c1nc(Cl)cc(NCc2cccc(F)c2)c1Cl [Compound 7-2, 3,6-Dichloro-4-[(3-fluorophenylmethyl)-amino]-pyridine-2-carboxylic acid methyl ester]",50,100,80,100,50,100,50,100,90,100,50,80
"C=Cc1c(NCc2c(Cl)cccc2Cl)cc(Cl)nc1C(=O)OC [Compound 21-12, 6-Chloro-4-[(2,6-dichlorophenyl-methyl)-amino]-3-ethenyl-pyridine-2-carboxylic acid methyl ester]",0,,0,100,0,30,10,80,0,100,20,30
